This is an account of results in US20230390315A1, “COMPOSITIONS AND METHODS FOR TREATING ISCHEMIC CONDITIONS” (The Regents of the University of California, priority 2020, published 2023).

One test concerns skin wound. As to the kind of experiment: Skin wound healing model (splinted wound). The format is in vivo, mouse. Particulars: day 4; topical 20 μg daily. An excerpt: The model has been previously described. Briefly, C57BL/6 female mice (8-10 weeks old) were obtained from Jackson labs (Sacramento, CA). A fresh, full-thickness punch wound (4 mm diameter) using a punch (Acu Punch, Acuderm inc. Ft. Lauderdale, FL) splinted with a sterile neoprene ring (6-mm outer diameter and 4-mm inner diameter), fastened with 5-6 sutures (4-0 nylon) under the influence of Isoflurane was created on the back of the animal in a Class II Biological Safety Cabinet. For all surgical procedures, sterile technique was followed. Buprenorphine was given subcutaneously prior to awakening from anesthesia for anticipated pain. Mice were monitored until fully awake and were housed individually to minimize damage/biting/fighting to the surgical site. […] Treatment agents were prepared in PBS, sterile-filtered and 25 μl solution was applied daily directly to a wound bed for the first 4-5 days under the influence of Isoflurane, followed by daily observation. Wound closure was monitored by regular imaging and the wound area was quantified using ImageJ (National Institutes of Health, Bethesda, MD, USA). […] Epithelial gap was measured histomorphometrically using AxioVision LE Rel.4.4 software. […] Small vessels stained positive for CD31 were counted microscopically on 10 fields (20×) taken around the wound.

Test [1] relates to BCEC confluent monolayers. Kind of test: BCEC scratch assay. The format is cell-based, bovine. The conditions noted are these: 40 uM ManN or 50 ng/ml of VEGF; after 48 hours. As to the method:
BCECs (passage 6-10) and HUVEC (passage 6-8) were used in this assay. Cells were grown until about 80% confluency in 6-well plates, washed twice with PBS and then starved in serum-free DMEM (low Glucose, Hyclone) for 5 hrs before making a “scratch” using 1 ml tip. Cell monolayers were briefly washed once with serum-free media, followed by various treatments in media containing 1% FBS. 48 hrs later, the assay was stopped by adding 2 ml 4% paraformaldehyde. 20 min later, fixed cells were stained with 1 ml Crystal Violet (Sigma). Plates were washed gently under the running tap water and air-dried before taking pictures. Images were acquired by ZEISS Discovery […] microscopy equipped with […] camera. Quantification of wound closure was done using AxioVision LE Rel.4.4 software. Six images were taken for each sample and six measurements (in pixel) were made on each image using AxioVision LE Rel.4.4 software.

Test [2] relates to bovine choroidal microvascular endothelial cells (BCEC). As to the kind of experiment: BCEC proliferation assay. The format is cell-based. As to the method: Proliferation assays with BCECs and BRECs were performed. Log-phase growing BCECs or BRECs (passage <10) were trypsinized, re-suspended and seeded in 96-well plates (no coating) in low-glucose DMEM supplemented with 10% bovine calf serum, 2 mM glutamine, and antibiotics (growth medium), at a density of 1200-1500 cells per well in 200 μl volume. All reagents were added at the indicated final concentrations. […] Fluorescence was measured at 530 nm excitation wavelength and 590 nm emission wavelength. The experiments were repeated at least three times. […] On each 96-well plate, untreated and VEGF-treated (10/ng/ml) wells were included to monitor plate-to-plate variations. 20% methanol or 0.05% DMSO served as negative controls. 0.05% DMSO served as negative controls when Cas was tested in these cells. Human […] and human adult […] were split into Gelatin-coated 96 wells (2000 cells per well) in low glucose DMEM containing 10% FBS. 1200 cells/well was set up for proliferation assay in low glucose media containing FBS. […] HUVEC (p7-10) were grown on gelatin-coated plate until it reached 70-80% confluency. On the day of the assay, cells were dissociated with 0.05% trypsin, which was neutralized with 0.5% FBS-containing EBM. Cells were briefly spun and then re-suspended in 0.5% FBS-media. Cells were counted and plated in 96-well, 1000 cells/well. Triplicate wells were used for each treatment. Data were collected at day 3, and then cells were fixed in 4% paraformaldehyde for 15 min before adding crystal violet. Cell-covered areas were quantified after taking pictures by Image J software.

In a further test the test system is Bip, CHOP and ATF-6. As to the kind of experiment: Western blot of UPR responsive proteins in BCECs. Particulars: growing cells deprived of growth factor supply. It is filed as cell-based, bovine. The method, then: (§1) Cells were allowed to reach ˜80% confluency in 12-well plates. […] At various time points, plates were taken out of the incubator and kept on ice. Cell monolayers were first washed once with ice-cold PBS before lysis with 250 μl of Pierce RIPA buffer (ThermoFisher Scientific, Rockford, IL) or use 50 mM Tris-HCl (pH 7.6), 150 mM NaCl, 10% Glycerol, 1% NP-40 containing protease/Phosphatase inhibitor cocktail (100×) (Cell signaling, #5872). Lysates were collected and mixed with 4×Bolt LDS Sample Buffer (Novex, Carlsbad, CA) in the presence of Halt protease inhibitors and phosphatase inhibitor cocktail (ThermoFisher scientific, #NP0007). The samples were subjected to SDS-PAGE (Bolt 4-12% Bis-Tris Plus, Invitrogen) using Bolt MES SDS running buffer or NuPAGE 3-8% Tris-Acetate gel using Tris-Acetate SDS running buffer (Novex). HUVECs (passage 6-8) were plated in EBM-2 basal medium (Lonza) with 0.2% FBS. […] Equal amounts of protein lysates were analyzed by SDS-PAGE and blotted with the indicated antibodies. Proteins were transferred using Tris-Glycine buffer with 20% Methanol (Proteonomics grade) (Apex BioResearch Products). Membranes were first incubated with 5% milk in TBST, pH 7.6 (TEKnova, Hollister, CA), followed by blotting with primary and secondary antibodies. ECL anti-rabbit IgG, horseradish peroxidase linked whole antibody from donkey or sheep anti-mouse were obtained from GE Healthcare (UK limited). SuperSignal West Dura Extended Duration substrate was from ThermoFisher Scientific. In some cases, the same PVDF membranes were stripped by 8-min incubation in the Restore Plus Western Blot Stripping Buffer (ThermoFisher Scientific) to show total specific protein expression, followed by second stripping for β-actin expression.
A general note: Immunoblotting shows a protein as a band on a membrane.

The subject of the next test is VEGFR2. As to the kind of experiment: Western blot of VEGFR2 molecular mass in BCECs and BRECs. It is filed as cell-based, bovine. The conditions noted are these: BCECs and BRECs. As to the method:
Glycerol-free PNGase F was obtained from New England Biolabs (Ipswich, MA). Briefly, BCECs were lysed with NP-40 containing proteinase inhibitors (Thermo Scientific, Waltham, MA). Lysates were cleared at 4° C. at 5000 g for 25 mins. Total protein content was measured using Pierce BCA protein assay kit (ThermoScientific). […] of protein was mixed with 10× denaturing buffer and H2O to a total volume of […]. Glycoproteins were denatured at 100° C. for 10 mins, followed by adding Glycobuffer and PNGase F. The reaction was carried out at 37° C. for 2 hr.
as §1

As to VEGF, the “average closure of the wound” value with skin wound worked out at 66.9%. In test [1], the “closure of the scratched area compared to control” value was “significantly accelerated”. Also, the “fold increase in cell proliferation” value in test [2] (5 ng/ml VEGF) was 4-5 fold. For the same substance, the “dependence of VEGF activity on glycolysis” value in test [2] (glucose-free media) is “not dependent on the glycolysis pathway”. Further, the Bip expression result in the test on Bip, CHOP and ATF-6 is “not”. In addition, the “effect on apparent molecular mass of VEGFR2” value in the test on VEGFR2 is reported as “no effect”.
